{
  "source": "patent US20240156872A1",
  "about": "“Use of Chaperone-Mediated Autophagy Activators For Treating Or Preventing Blood Cancers And Myelodysplastic Syndromes And Enriching Hematopoietic Stem Cell Populations” (ALBERT EINSTEIN COLLEGE OF MEDICINE, priority 2021, published 2024)",
  "key": {"[1]": {"tested_on": "CMA in HSC from KFERQ-Dendra mice", "experiment": "KFERQ-Dendra CMA reporter in HSC after in vivo activation", "design": "species or system mouse", "from_the_text": "Mice. Hematopoietic system specific L2A KO mice were created by crossing C57BL/6 Vav-iCre mice with C57BL/6 L2Af/f mice. […] For the aging studies, 3-4 months (labeled as 4 m) and 25-30 m (labeled as >25 m) male mice were used in the young and old group, respectively. KFERQ-Dendra2 transgenic mice and KFERQ-Dendra mice defective in CMA (KFERQ-Dendra-L2AKO) were generated as described before. […] Young and old controls were similarly injected with tamoxifen. […] KFERQ-Dendra mice with extra copy of human L2A (KFERQ-Dendra-hL2AOE) were generated by breeding KFERQ-Dendra male mice with hL2AOE mice. […] Bone marrow was analyzed at the same times. Data is from the analysis 8 days post-injection, unless otherwise specified. For serial 5FU injections, mice were injected every week and 7 days post injection blood was taken and blood counts measured as above and dead mice and time of death were registered. […] The CMA activator (CA 20 mg/Kg b.w. per mouse day for 2 months) was administered orally in the form of sucralose gelatin agar pills.\nImmunofluorescence staining. HSC or myeloid progenitor cells were directly sorted into 16-well slides pre-coated with Cell-Tak Cell Tissue Adhesive (Coming, 354240) and then fixed with 4% PFA for 15 min at room temperature (RT). For LAMP2A, LAMP1, total human LAMP2 and FADS2 staining, slides were washed with PBS and incubated with blocking buffer (5% goat serum/0.3% TrionX-100 in PBS) for 1 hour at RT and incubated ovemight at 4° C. with the first antibody diluted in 1% BSA/0.3% TritonX-100 followed by 40 min incubation at RT with fluorescence-conjugated secondary antibodies. Cells were washed 3 times with PBS and mounted with mounting medium with DAPI (Southern biotech). […] Oxidized proteins were detected with OxyICC Oxidized Protein Detection Kit from Sigma (S7350) and protein inclusions were detected with PROTEOSTAT Aggresome detection kit from ENZO (ENZ-51035) following manufacturer's instructions. […] For analysis of CMA activity using direct fluorescence and the KFERQ-Dendra CMA reporter, cells isolated from KFERQ-Dendra2 transgenic mice were fixed with 2% PFA for 5 min at RT and mounted for direct puncta counting or subjected for immunofluorescence as described above. Quantification was performed in TIFF converted images upon thresholding using the 3D object counter tool of Image J software (NIH). Average number of puncta per cell was determined for each of the cells in a field and at least 3 different fields per animal were counted. Where indicated, we also calculated the percentage of cells active for CMA, defined as those with at least two Dendra positive puncta. […] CMA flux was calculated as the increase in number of Dendra positive puncta upon leupeptin treatment. […]"}, "[2]": {"tested_on": "Bead sorted CD34+ MNC from patients over 55 years of age", "experiment": "FACS quantification of phenotypical HSC (HSPCs) in CD34+ MNC after 72 hours in HSC maintenance cultures", "type": "cell-based, human", "details": "for long-term HSCs (LT-HSC; CD90+, CD49f+, CD34+, CD38−, Lin-): short term ex vivo culture vs vehicle (FIG. 17)", "method": "FIG. 15. Representative FACS data and gating strategy. Bead sorted CD34+ MNC from patients over 55 years of age were treated with compounds 77.1, 77.43, 77.36, B13, B19 or vehicle control for 72 hours in HSC maintenance cultures. The experimental readout is quantification of phenotypical HSC (HSPCs) by FACS analysis. […] Results also identified a positive trend in HSC number from a HC derived specimen."}, "[3]": {"tested_on": "human CD34+ cells from old (>65 year) multi-myeloma patients", "details": "CD34+ cells from old (>65 years) patients, ex vivo GLA", "text": "Human hematopoietic stem and progenitor cells. Mobilized peripheral blood from multiple myeloma patients (59-71 years old) was enriched for mononuclear cells by density gradient centrifugation using Ficoll-Paque PLUS (GE Healthcare). Mono-nuclear cells were further enriched for CD34+ cells using immunomagnetic bead sorting (CD34 MicroBead Kit, human; Miltenyi Biotec) according to the manufacturer's protocol. The isolated CD34+cells were then used for LTC-IC or colony formation assays. LTC-IC assay. To assess LTC-IC frequencies, serial dilutions of FACS-sorted mouse Lin-Sca-l+c-Kit+ (LSK) cells or CD34+enriched human HSPCs were plated in MyeloCult [MUT] for mouse or MyeloCult [MUT] for human ([sequence] Technologies) mixed at 50:50 ratio with primary mouse stroma cell-conditioned medium or with HS5-conditioned medium for human cells. For each cell dose (1:10, 1:20, 1:40, 1:80, 1:160 for mouse LSK cells, 1:50, 1:100, 1:200, 1:400, 1:800 for human HSPC), 10 technical replicates were performed. […] For CFU-C counting, in the case of mouse samples, wells containing any type of colonies were scored as positive, while in the case of human samples, only wells with GEMM colonies were scored as positive. […]"}, "Ctrl and L2AKO HSC": {"tested_on": "Ctrl and L2AKO HSC", "experiment": "Colony formation and serial re-plating assay with Ctrl and L2AKO HSC with supplemented media", "type": "cell-based, mouse", "from_the_text": "Colony formation and serial re-plating assays. […] Colonies were scored after 10 to 12 days for mouse and 14 to 16 days for human cells using an Inverted Infinity and Phase Contrast Microscope (Fisher Scientific)."}, "HSC from old (22 m) mice": {"tested_on": "HSC from old (22 m) mice", "details": "daily injections of GLA (1mg/kg bw) for 7 weeks vs saline", "experimental": "Mice. […] For the aging studies, 3-4 months (labeled as 4 m) and 25-30 m (labeled as >25 m) male mice were used in the young and old group, respectively. […] For GLA supplementation, old mice (>25 m) were injected with either saline or GLA (1mg/kg bw) for 40 days.\nColony formation and serial re-plating assays. Sorted mouse HSC (180 cells Lin−/cKit+/Scal+/CD48−/CD150+) or CD34-enriched human HSPC (5,000 cells) were plated into methylcellulose media ([sequence] Technologies, MethoCult M 3434 for mouse or MethoCult H4434 for human) according to the manufacturer's protocols. Colonies were scored after 10 to 12 days for mouse and 14 to 16 days for human cells using an Inverted Infinity and Phase Contrast Microscope (Fisher Scientific). […] Where indicated, media was supplemented with 100 nM FADS2 inhibitor SC-26196 (Sigma, PZ0176), 100 μM γ-linolenic fatty acid (GLA) (Sigma, L2378), 100 μtM NAC (Sigma, A7250) or 5 mM Methyl-pyruvate (Sigma, 371173)."}},
  "data": [
    {"compound": "O=c1[nH]cc(F)c(=O)[nH]1", "note": "[5FU, 5-fluorouracil]", "values": [
      {"measurement": "time of CMA returning to basal levels in HSC", "setting": "[1]; after 5FU injection", "result": 16, "unit": "days"},
      {"measurement": "time of maximal CMA upregulation in HSC", "setting": "[1]; after 5FU injection", "result": 8, "unit": "days"},
      {"measurement": "CMA activity in HSC (Dendra puncta per cell)", "setting": "[1]; after single injection of 5FU", "result": "further upregulate CMA"}
    ]},
    {"compound": "CC(=O)Nc1ccc(-c2cnc3cc(Cl)ccc3n2)cc1", "note": "[CA77.1, N-(4-(6-chloroquinoxalin-2-yl)phenyl)acetamide]", "values": [
      {"measurement": "number of phenotypical HSCs by FACS", "setting": "[2]; AML patient derived specimen, 72 hours vs vehicle", "result": "detectable and significant increase in HSCs"},
      {"measurement": "long-term HSCs (LT-HSC; CD90+, CD49f+, CD34+, CD38−, Lin-)", "setting": "[2]", "result": "significantly more long-term HSCs (LT-HSC) than vehicle"}
    ]},
    {"compound": "Clc1ccc2nc(-c3ccc(Nc4cnccn4)cc3)cnc2c1", "note": "[CA77.36, N-(4-(6-chloroquinoxalin-2-yl)phenyl)pyrazin-2-amine]", "values": [
      {"measurement": "long-term HSCs (LT-HSC; CD90+, CD49f+, CD34+, CD38−, Lin-)", "setting": "[2]", "result": "significantly more long-term HSCs (LT-HSC) than vehicle"}
    ]},
    {"compound": "Cc1nnc(-c2ccc(-c3cnc4cc(Cl)ccc4n3)cc2)[nH]1", "note": "[CA77.43, 6-chloro-2-(4-(5-methyl-4H-1,2,4-triazol-3-yl)phenyl)quinoxaline]", "values": [
      {"measurement": "long-term HSCs (LT-HSC; CD90+, CD49f+, CD34+, CD38−, Lin-)", "setting": "[2]", "result": "significantly more long-term HSCs (LT-HSC) than vehicle"}
    ]},
    {"compound": "CCCCC/C=C\\C/C=C\\C/C=C\\CCCCC(=O)O", "note": "[GLA, γ-linolenic acid]", "values": [
      {"measurement": "number of functional human stem cells in long-term cultures (LTC-IC)", "setting": "[3]", "result": "increased the number of functional human stem cells in long-term cultures"},
      {"measurement": "self-renewal capacity of CMA-defective (L2AKO) HSC (colony numbers)", "setting": "Ctrl and L2AKO HSC; L2AKO HSC, GLA supplemented media, ex vivo", "result": "restored their self-renewal capacity ex vivo"},
      {"measurement": "HSC function by colony formation", "setting": "HSC from old (22 m) mice", "result": "improved HSC function as assessed by colony formation"}
    ]},
    {"compound": "CC(=O)N[C@@H](CS)C(=O)O", "note": "[NAC, N-acetylcysteine]", "values": [
      {"measurement": "long-term colony initiation abilities of L2AKO HSC (total colony numbers in 3rd plating)", "setting": "Ctrl and L2AKO HSC; L2AKO HSC, NAC from the 1st plating", "result": "restored their ex vivo long-term colony initiation abilities"}
    ]},
    {"compound": "N#CC(CCCN1CCN(/N=C/c2cccnc2)CC1)(c1ccccc1)c1ccccc1", "note": "[SC-26196]", "values": [
      {"measurement": "self-renewal ability of control HSC (colony numbers)", "setting": "Ctrl and L2AKO HSC; control cells, 100 nM FADS2 inhibitor SC-26196, first plating", "result": "sufficient to reduce self-renewal ability of control cells"}
    ]},
    {"compound": "polyI:C", "values": [
      {"measurement": "CMA activity in HSC (Dendra puncta per cell)", "setting": "[1]; 48 hours after injection of PolyI:C vs vehicle", "result": "upregulated CMA"}
    ]}
  ]
}
